Our source for the Kd and Ki values is patent US8008305B2, “TAAR1 ligands” (Hoffmann-La Roche Inc., priority 2007, dated 2011).

The target in this experiment is T1, TAAR1 (Mus musculus, UniProt Q923Y8).
T1 construct: expressed in transfected cells; host or cells: HEK293 cells (ATCC # CRL-1573), stably transfected with pIRESneo2 expression plasmid; membranes prepared
In words: Radioligand binding ([3H]-rac-2-(1,2,3,4-tetrahydro-1-naphthyl)-2-imidazoline) on membranes of HEK293 cells stably expressing TAAR1. The following applies: for Ki: mouse TAAR1, radioligand at 60 nM, 4° C., 30 min incubation. As to the method: Construction of TAAR Expression Plasmids and Stably Transfected Cell Lines
For the construction of expression plasmids the coding sequences of human, rat and mouse TAAR 1 were amplified from genomic DNA essentially as described by Lindemann et al.. The Expand High Fidelity PCR System (Roche Diagnostics) was used with 1.5 mM Mg^2+ and purified PCR products were cloned into pCR2.1-TOPO cloning vector (Invitrogen) following the instructions of the manufacturer. PCR products were subcloned into the pIRESneo2 vector (BD Clontech, Palo Alto, Calif.), and expression vectors were sequence verified before introduction in cell lines.
HEK293 cells (ATCC # CRL-1573) were cultured essentially as described Lindemann et al. (2005). For the generation of stably transfected cell lines HEK293 cells were transfected with the pIRESneo2 expression plasmids containing the TAAR coding sequences (described above) with Lipofectamine 2000 (Invitrogen) according to the instructions of the manufacturer, and 24 hrs post transfection the culture medium was supplemented with 1 mg/ml G418 (Sigma, Buchs, Switzerland). After a culture period of about 10 d clones were isolated, expanded and tested for responsiveness to trace amines (all compounds purchased from Sigma) with the cAMP Biotrak Enzyme immunoassay (EIA) System (Amersham) following the non-acetylation EIA procedure provided by the manufacturer.
Membrane Preparation and Radioligand Binding
Cells at confluence were rinsed with ice-cold phosphate buffered saline without Ca^2+ and Mg^2+ containing 10 mM EDTA and pelleted by centrifugation at 1000 rpm for 5 min at 4° C. The pellet was then washed twice with ice-cold phosphate buffered saline and cell pellet was frozen immediately by immersion in liquid nitrogen and stored until use at −80° C. Cell pellet was then suspended in 20 ml HEPES-NaOH (20 mM), pH 7.4 containing 10 mM EDTA, and homogenized with a Polytron (PT 3000, Kinematica) at 10,000 rpm for 10 s. The homogenate was centrifuged at 48,000×g for 30 min at 4° C. and the pellet resuspended in 20 ml HEPES-NaOH (20 mM), pH 7.4 containing 0.1 mM EDTA (buffer A), and homogenized with a Polytron at 10,000 rpm for 10 s. The homogenate was then centrifuged at 48,000×g for 30 min at 4° C. and the pellet resuspended in 20 ml buffer A, and homogenized with a Polytron at 10,000 rpm for 10 s. Protein concentration was determined by the method of Pierce (Rockford, Ill.). The homogenate was then centrifuged at 48,000×g for 10 min at 4° C., resuspended in HEPES-NaOH (20 mM), pH 7.0 including MgCl2 (10 mM) and […] homogenized with a Polytron at 10,000 rpm for 10 s.
Binding assay was performed at 4° C. in a final volume of 1 ml, and with an incubation time of 30 min. The radioligand [^3H]-rac-2-(1,2,3,4-tetrahydro-1-naphthyl)-2-imidazoline was used at a concentration equal to the calculated Kd value of 60 nM to give a bound at around 0.1% of the total added radioligand concentration, and a specific binding which represented approximately 70-80% of the total binding. Non-specific binding was defined as the amount of [^3H]-rac-2-(1,2,3,4-tetrahydro-1-naphthyl)-2-imidazoline bound in the presence of the appropriate unlabelled ligand (10 μM). Competing ligands were tested in a wide range of concentrations (10 pM-30 μM). […] Each experiment was performed in duplicate. All incubations were terminated by rapid filtration through UniFilter-96 plates (Packard Instrument Company) and glass filter GF/C, pre-soaked for at least 2 h in polyethylenimine 0.3%, and using a Filtermate 96 Cell Harvester (Packard Instrument Company). The tubes and filters were then washed 3 times with 1 ml aliquots of cold buffer B. Filters were not dried and soaked in Ultima gold (45 μl/well, Packard Instrument Company) and bound radioactivity was counted by a TopCount Microplate Scintillation Counter (Packard Instrument Company).

T1 sequence (Q923Y8 whole entry): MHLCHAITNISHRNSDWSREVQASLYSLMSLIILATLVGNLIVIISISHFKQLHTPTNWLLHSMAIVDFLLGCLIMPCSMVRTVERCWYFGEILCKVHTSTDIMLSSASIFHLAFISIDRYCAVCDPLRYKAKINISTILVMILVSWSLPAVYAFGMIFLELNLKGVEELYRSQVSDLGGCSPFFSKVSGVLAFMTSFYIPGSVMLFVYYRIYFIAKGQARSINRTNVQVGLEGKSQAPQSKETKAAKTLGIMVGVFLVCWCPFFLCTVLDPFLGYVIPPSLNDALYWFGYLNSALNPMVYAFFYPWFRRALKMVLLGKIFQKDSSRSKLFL

For `c1ccc2c(c1)CCCC2C1=NCCN1` (racemic) [[^3H]-rac-2-(1,2,3,4-tetrahydro-1-naphthyl)-2-imidazoline, reference compound], the Kd (TAAR1 binding assay, species not given, read-out: calculated Kd value of the radioligand) is 60 nM.
As for `CN1CCN(c2ccc(C(=O)NCCc3ccccc3)cn2)CC1` [A, 6-(4-methyl-piperazin-1-yl)-N-phenethyl-nicotinamide, reference compound], the inhibitory constant (Ki) came out at 0.044 µM.
Same read-out and setting: the figure for `CN1CCN(c2ccc(C(=O)NCc3ccccc3)cn2)CC1` [Example 1, N-Benzyl-6-(4-methyl-piperazin-1-yl)-nicotinamide] is 0.071 µM; for `CN1CCN(c2ccc(C(=O)NCc3ccc(Cl)cc3)cn2)CC1` [Example 2] it is 0.013 µM.
Still for that read-out and setting: the figure for `CN1CCN(c2ccc(C(=O)NCCc3ccc(Cl)cc3)cn2)CC1` [Example 6, N-[2-(4-Chloro-phenyl)-ethyl]-6-(4-methyl-piperazin-1-yl)-nicotinamide] is 0.005 µM.
For the molecule `CN1CCN(c2ccc(C(=O)NCCc3cccc(Cl)c3)cn2)CC1` [Example 7, N-[2-(3-Chloro-phenyl)-ethyl]-6-(4-methyl-piperazin-1-yl)-nicotinamide], the Ki was 0.027 µM.
Same read-out and setting: the figure for `CN1CCN(c2ccc(C(=O)NCCc3cccc(C(F)(F)F)c3)cn2)CC1` [Example 8, 6-(4-Methyl-piperazin-1-yl)-N-[2-(3-trifluoromethyl-phenyl)-ethyl]-nicotinamide] is 0.01 µM; for `COc1ccc(CCNC(=O)c2ccc(N3CCN(C)CC3)nc2)cc1` [Example 9, N-[2-(4-Methoxy-phenyl)-ethyl]-6-(4-methyl-piperazin-1-yl)-nicotinamide] it is 0.091 µM; for `COc1cccc(CCNC(=O)c2ccc(N3CCN(C)CC3)nc2)c1` [Example 10, N-[2-(3-Methoxy-phenyl)-ethyl]-6-(4-methyl-piperazin-1-yl)-nicotinamide] it is 0.049 µM.
On the same count and under the same terms, next, `CN1CCN(c2ccc(C(=O)NCCc3ccc4c(c3)OCO4)cn2)CC1` [Example 11, N-(2-Benzo[1,3]dioxol-5-yl-ethyl)-6-(4-methyl-piperazin-1-yl)-nicotinamide]: 0.043 µM.
Consider `CN1CCN(c2ccc(C(=O)NCCc3ccc(-c4ccccc4)cc3)cn2)CC1` [Example 12, N-(2-Biphenyl-4-yl-ethyl)-6-(4-methyl-piperazin-1-yl)-nicotinamide], for which the affinity corresponds to a Ki of 0.028 µM.
As for `CN1CCN(c2ccc(C(=O)NCCc3ccc(Oc4ccccc4)cc3)cn2)CC1` [Example 13, 6-(4-Methyl-piperazin-1-yl)-N-[2-(4-phenoxy-phenyl)-ethyl]-nicotinamide], affinity was put at a Ki of 0.004 µM.
Still for that read-out and setting: the figure for `CN1CCN(c2ccc(C(=O)NCCc3cccc(Oc4ccccc4)c3)cn2)CC1` [Example 14, 6-(4-Methyl-piperazin-1-yl)-N-[2-(3-phenoxy-phenyl)-ethyl]-nicotinamide] is 0.068 µM.
Same read-out and setting: next, `CN1CCN(c2ccc(C(=O)NCCc3ccc(OCc4ccccc4)cc3)cn2)CC1` [Example 15, N-[2-(4-Benzyloxy-phenyl)-ethyl]-6-(4-methyl-piperazin-1-yl)-nicotinamide]: 0.006 µM; `CN1CCN(c2ccc(C(=O)NCCc3cn(C)c4ccccc34)cn2)CC1` [Example 18, N-[2-(1-Methyl-1H-indol-3-yl)-ethyl]-6-(4-methyl-piperazin-1-yl)-nicotinamide]: 0.023 µM; `CN1CCC(Oc2ccc(C(=O)NCCc3ccc(Oc4ccccc4)cc3)cn2)CC1` [Example 24, 6-(1-Methyl-piperidin-4-yloxy)-N-[2-(4-phenoxy-phenyl)-ethyl]-nicotinamide]: 0.019 µM.
The same measure, in the same setting: next, `O=C(NCCc1ccc(Cl)cc1)c1ccc(N2CCNCC2)nc1` [Example 26, N-[2-(4-Chloro-phenyl)-ethyl]-6-piperazin-1-yl-nicotinamide]: 0.081 µM; `O=C(NCCc1ccc(Oc2ccccc2)cc1)c1ccc(N2CCNCC2)nc1` [Example 28, N-[2-(4-Phenoxy-phenyl)-ethyl]-6-piperazin-1-yl-nicotinamide]: 0.016 µM.
Regarding `O=C(NCCc1cccc(Oc2ccccc2)c1)c1ccc(N2CCNCC2)nc1` [Example 29, N-[2-(3-Phenoxy-phenyl)-ethyl]-6-piperazin-1-yl-nicotinamide], the Ki worked out at 0.071 µM.
On the same count and under the same terms, next, `O=C(NCCc1ccc(OCc2ccccc2)cc1)c1ccc(N2CCNCC2)nc1` [Example 30, N-[2-(4-Benzyloxy-phenyl)-ethyl]-6-piperazin-1-yl-nicotinamide]: 0.028 µM; `CN1CCN(c2ncc(C(=O)NCCc3ccc(Cl)cc3)cc2Br)CC1` [Example 31, 5-Bromo-N-[2-(4-chloro-phenyl)-ethyl]-6-(4-methyl-piperazin-1-yl)-nicotinamide]: 0.006 µM.
On the same count and under the same terms, the figure for `CN1CCN(c2ncc(C(=O)NCCc3ccc(Oc4ccccc4)cc3)cc2Br)CC1` [Example 32, 5-Bromo-6-(4-methyl-piperazin-1-yl)-N-[2-(4-phenoxy-phenyl)-ethyl]-nicotinamide] is 0.005 µM; for `O=C(NCCc1ccc(Cl)cc1)c1cnc(N2CCNCC2)c(Br)c1` [Example 33, 5-Bromo-N-[2-(4-chloro-phenyl)-ethyl]-6-piperazin-1-yl-nicotinamide] it is 0.019 µM; for `O=C(NCCc1ccc(Oc2ccccc2)cc1)c1cnc(N2CCNCC2)c(Br)c1` [Example 34, 5-Bromo-N-[2-(4-phenoxy-phenyl)-ethyl]-6-piperazin-1-yl-nicotinamide] it is 0.009 µM.
On the same count and under the same terms, the figure for `CN1CCN(c2ccc(C(=O)NCCC3CCCCC3)cn2)CC1` [Example 54, N-(2-Cyclohexyl-ethyl)-6-(4-methyl-piperazin-1-yl)-nicotinamide] is 0.012 µM; for `CN1CCN(c2ccc(C(=O)NCC3CCCCC3)cn2)CC1` [Example 55, N-Cyclohexylmethyl-6-(4-methyl-piperazin-1-yl)-nicotinamide] it is 0.062 µM.

In general, Kd refers to a measure of binding affinity in units of concentration. As a reminder, the Ki is the dissociation constant of the complex between target and ligand, obtained from inhibition or displacement.
